{"source": "patent US12247032B2", "about": "“Substituted pyrazolo[1,5-a]pyrimidines as inhibitors of JAK kinases” (Genentech, Inc., priority 2019, dated 2025)"}
{"molecular_target": "T1, Recombinant human JAK2 kinase domain protein (Residues 812-1132) (Homo sapiens, UniProt O60674)", "T1 construct": "human JAK2 kinase domain protein (Residues 812-1132); made in house; host or cells: insect cells", "T1 sequence (O60674 812-1132)": "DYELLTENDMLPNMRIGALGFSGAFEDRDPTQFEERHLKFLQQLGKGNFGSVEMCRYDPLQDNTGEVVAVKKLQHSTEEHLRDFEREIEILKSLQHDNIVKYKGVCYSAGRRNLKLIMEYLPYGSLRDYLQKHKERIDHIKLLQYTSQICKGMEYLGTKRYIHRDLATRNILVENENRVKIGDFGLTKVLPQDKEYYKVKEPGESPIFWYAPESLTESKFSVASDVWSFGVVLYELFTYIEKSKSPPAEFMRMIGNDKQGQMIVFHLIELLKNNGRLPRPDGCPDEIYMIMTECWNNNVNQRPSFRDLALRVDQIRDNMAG", "assay": "JAK2 biochemical assay (microfluidic mobility shift, peptide phosphorylation)", "details": "25 μM ATP, 0.2 nM total JAK2; Ki calculated from Ki app (tight-binding, competitive); read-out: Biochem JAK2 Ki", "how_it_was_run": "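Insect-cell-expressed human JAK1 (1 nM, residues 854-1154) or JAK2 (0.2 nM, residues 812-1132) phosphorylating 1.5 μM 5-FAM peptide Y-1B with 25 μM ATP, pH 7.2 HEPES, 30 min at 22-23 °C; twelve concentrations up to 1000 nM in duplicate. Mobility-shift % conversion fitted to tight-binding quadratic for Ki^app.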", "units": {"Ki": "nM"}}
{"smiles": "NCCn1nnnc1Cn1cc(NC(=O)c2cnn3cccnc23)c(-c2cc(OC(F)F)ccc2OC(F)F)n1", "note": "[Example 14, N-[1-[[1-(2-aminoethyl)tetrazol-5-yl]methyl]-3-[2,5-bis(difluoromethoxy)phenyl]pyrazol-4-yl]pyrazolo[1,5-a]pyrimidine-3-carboxamide]", "Ki": 0.12}
{"smiles": "CN1CCC(N2CC(n3nnc(Cn4cc(NC(=O)c5cnn6cccnc56)c(-c5cc(OC(F)F)ccc5OC(F)F)n4)n3)C2)C1", "note": "(single isomer, unassigned) [Example 72, N-[3-[2,5-bis(difluoromethoxy)phenyl]-1-[[2-[1-(1-methylpyrrolidin-3-yl)azetidin-3-yl]tetrazol-5-yl]methyl]pyrazol-4-yl]pyrazolo[1,5-a]pyrimidine-3-carboxamide]", "Ki": 0.48}
{"smiles": "CN(C)CCn1nnc(Cn2cc(NC(=O)c3cnn4cccnc34)c(-c3cc(OC(F)F)ccc3OC(F)F)n2)n1", "note": "[Example 16, N-[3-[2,5-bis(difluoromethoxy)phenyl]-1-[[2-[2-(dimethylamino)ethyl]tetrazol-5-yl]methyl]pyrazol-4-yl]pyrazolo[1,5-a]pyrimidine-3-carboxamide]", "Ki": 0.27}
{"smiles": "O=C(Nc1cn(Cc2nnn(C3CNC3)n2)nc1-c1cc(OC(F)F)ccc1OC(F)F)c1cnn2cccnc12", "note": "[Example 11, N-[1-[[2-(azetidin-3-yl)tetrazol-5-yl]methyl]-3-[2,5-bis(difluoromethoxy)phenyl]pyrazol-4-yl]pyrazolo[1,5-a]pyrimidine-3-carboxamide]", "Ki": 0.27}
{"smiles": "CN1CC(n2nnc(Cn3cc(NC(=O)c4cnn5cccnc45)c(-c4cc(C5CC5)ccc4OC(F)F)n3)n2)C1", "note": "[Example 23, N-[3-[5-cyclopropyl-2-(difluoromethoxy)phenyl]-1-[[2-(1-methylazetidin-3-yl)tetrazol-5-yl]methyl]pyrazol-4-yl]pyrazolo[1,5-a]pyrimidine-3-carboxamide]", "Ki": 0.24}
{"smiles": "O=C(Nc1cn(Cc2nnn(C3CCNC3)n2)nc1-c1cc(OC(F)F)ccc1OC(F)F)c1cnn2cccnc12", "note": "(single isomer, unassigned) [Example 27, N-[3-[2,5-bis(difluoromethoxy)phenyl]-1-[(2-pyrrolidin-3-yltetrazol-5-yl)methyl]pyrazol-4-yl]pyrazolo[1,5-a]pyrimidine-3-carboxamide]", "Ki": 0.38}
{"smiles": "CN(C)CCN1CCC(n2nnc(Cn3cc(NC(=O)c4cnn5cccnc45)c(-c4cc(OC(F)F)ccc4OC(F)F)n3)n2)CC1", "note": "[Example 61, N-[3-[2,5-bis(difluoromethoxy)phenyl]-1-[[2-[1-[2-(dimethylamino)ethyl]-4-piperidyl]tetrazol-5-yl]methyl]pyrazol-4-yl]pyrazolo[1,5-a]pyrimidine-3-carboxamide]", "Ki": 0.52}
